Laboratory results reported in patent US10618918B2, “Substituted boronic acids as antimicrobials” (priority 2015, dated 2020).

Columns and labels:
ec302 TEM-10 = assay: Aztreonam potentiation (MPC@4), strain ec302 TEM-10
KP1010 SHV-12 = assay: Aztreonam potentiation (MPC@4), strain KP1010 SHV-12
KP1005 CTX-M-14 [1] = assay: Aztreonam potentiation (MPC@4), strain KP1005 CTX-M-14; details: read-out: Aztreonam MIC
KP1004 KPC-2 [2] = assay: Aztreonam potentiation (MPC@4), strain KP1004 KPC-2
KP1009 CTX-M-15 = assay: Aztreonam potentiation (MPC@4), strain KP1009 CTX-M-15
ec308 SHV-5 = assay: Aztreonam potentiation (MPC@4), strain ec308 SHV-5
EC1010 CMY-6 = assay: Aztreonam potentiation (MPC@4), strain EC1010 CMY-6
KP1086 OXA-48 = assay: Biapenem potentiation (MPC@1), strain KP1086 OXA-48; assay type: cell-based; details: minimum BLI concentration inhibiting growth with biapenem 1 μg/mL; tested up to 40 μg/mL
Experimental: (§1) Biapenem was present in the test medium at 1 μg/mL. […] Table 3 summarizes the BLI potency of biapenem potentiation (MPC@1) for two strains overexpressing class A (KPC) and class D (OXA-48) carbapenemases. Biapenem MIC for each strain is also shown.

AB1054 OXA-23 = assay: Meropenem potentiation (MPC@8), strain AB1054 OXA-23; assay type: cell-based, Acinetobacter baumannii
PAM1032/KPC-2 = assay: Biapenem potentiation MPC64 in PAM1032/KPC-2 (efflux proficient, overexpresses MexAB-OprM); assay type: cell-based, Pseudomonas aeruginosa
Experimental: (§2) Efflux of BLIs from Pseudomonas aeruginosa by the MexAB-OprM efflux pump was also evaluated. The plasmid expressing the gene encoding KPC-2 was introduced into two strains of P. aeruginosa, PAM1032 and PAM 1154 that overexpressed or lacked MexAB-OprM, respectively. […] Potency of BLIs to potentiate biapenem in these strains was determined.

biochemical = assay type: biochemical
[3] = molecular target: T1, purified class A, C and D enzymes (β-lactamases) (UniProt P0AD64, L31Q/G234S/E235K, species not given); assay: biochemical; assay type: biochemical; details: read-out: Ki (SHV-12, NCF); purified SHV-12; nitrocefin (NCF) as reporter substrate
T1 construct: Ki (SHV-12, NCF), uM; other: purified SHV-12; nitrocefin (NCF) as reporter substrate
T1 sequence (P0AD64 1-286 L31Q/G234S/E235K): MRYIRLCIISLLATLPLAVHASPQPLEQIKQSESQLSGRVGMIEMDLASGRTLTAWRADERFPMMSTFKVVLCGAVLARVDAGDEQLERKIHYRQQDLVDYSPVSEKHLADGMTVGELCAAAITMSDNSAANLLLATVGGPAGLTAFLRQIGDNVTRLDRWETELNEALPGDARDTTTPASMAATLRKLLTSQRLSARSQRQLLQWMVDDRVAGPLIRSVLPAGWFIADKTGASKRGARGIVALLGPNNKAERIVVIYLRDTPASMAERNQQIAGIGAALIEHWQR

[4] = molecular target: purified class A, C and D enzymes (β-lactamases) (Enterobacter cloacae, UniProt P05364); assay: biochemical; assay type: biochemical
[5] = molecular target: purified class A, C and D enzymes (β-lactamases) (Klebsiella pneumoniae, UniProt Q6XEC0); assay: biochemical; assay type: biochemical
[6] = molecular target: purified class A, C and D enzymes (β-lactamases) (Klebsiella pneumoniae, UniProt Q9F663); assay: biochemical; assay type: biochemical
[7] = molecular target: T2, purified class A, C and D enzymes (β-lactamases) (Pseudomonas aeruginosa, UniProt P24735); assay: biochemical; assay type: biochemical
T2 construct: rows headed: Ki (Pa-AmpC, NCF), uM; other: purified Pa-AmpC; nitrocefin (NCF) as reporter substrate

[8] = molecular target: purified class A, C and D enzymes (β-lactamases) (Escherichia coli, UniProt Q9L5C7); assay: biochemical; assay type: biochemical
AB1053 OXA-72 = assay: Meropenem potentiation (MPC@8), strain AB1053 OXA-72; assay type: cell-based, Acinetobacter baumannii; details: minimum BLI concentration inhibiting growth with meropenem 8 μg/mL; tested up to 20 μg/mL
KP1004 KPC-2 [9] = assay: Biapenem potentiation (MPC@1), strain KP1004 KPC-2; assay type: cell-based; details: minimum BLI concentration inhibiting growth with biapenem 1 μg/mL; tested up to 40 μg/mL
Experimental: as §1

KP1005 CTX-M-14 [10] = assay: Tigemonam potentiation (MPC@4), strain KP1005 CTX-M-14
PAM1154/KPC-2 = assay: Biapenem potentiation MPC64 in PAM1154/KPC-2 (efflux deficient, lacks MexAB-OprM); assay type: cell-based, Pseudomonas aeruginosa
Experimental: as §2

ECL1002 = assay: Aztreonam potentiation (MPC@4), strain ECL1002; details: minimum BLI concentration inhibiting growth with aztreonam 4 μg/mL; tested up to 40 μg/mL
[11] = minimum BLI concentration inhibiting growth with aztreonam 4 μg/mL, tested up to 40 μg/mL

Chain of purified class A, C and D enzymes (β-lactamases) (Escherichia coli, UniProt Q9L5C7) (Q9L5C7 entry or part of it): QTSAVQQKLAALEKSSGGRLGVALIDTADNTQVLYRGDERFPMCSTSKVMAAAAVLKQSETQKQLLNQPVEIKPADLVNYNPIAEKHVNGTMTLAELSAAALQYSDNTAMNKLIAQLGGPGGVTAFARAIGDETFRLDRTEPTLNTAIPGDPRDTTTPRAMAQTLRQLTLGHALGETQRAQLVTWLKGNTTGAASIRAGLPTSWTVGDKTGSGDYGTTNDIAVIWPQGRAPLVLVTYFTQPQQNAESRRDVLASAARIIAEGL
T2 sequence (P24735 whole entry): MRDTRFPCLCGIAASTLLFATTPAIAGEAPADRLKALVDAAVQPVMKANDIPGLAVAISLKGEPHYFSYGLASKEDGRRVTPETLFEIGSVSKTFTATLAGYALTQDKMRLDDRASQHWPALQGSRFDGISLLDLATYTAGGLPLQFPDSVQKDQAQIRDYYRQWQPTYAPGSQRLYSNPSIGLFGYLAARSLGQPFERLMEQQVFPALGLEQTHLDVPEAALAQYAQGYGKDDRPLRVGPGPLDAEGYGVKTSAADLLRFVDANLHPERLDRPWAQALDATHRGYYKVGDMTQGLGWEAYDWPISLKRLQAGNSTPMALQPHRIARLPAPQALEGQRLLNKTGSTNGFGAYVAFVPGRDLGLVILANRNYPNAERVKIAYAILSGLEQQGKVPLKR
Chain of purified class A, C and D enzymes (β-lactamases) (Enterobacter cloacae, UniProt P05364) (P05364 21-381): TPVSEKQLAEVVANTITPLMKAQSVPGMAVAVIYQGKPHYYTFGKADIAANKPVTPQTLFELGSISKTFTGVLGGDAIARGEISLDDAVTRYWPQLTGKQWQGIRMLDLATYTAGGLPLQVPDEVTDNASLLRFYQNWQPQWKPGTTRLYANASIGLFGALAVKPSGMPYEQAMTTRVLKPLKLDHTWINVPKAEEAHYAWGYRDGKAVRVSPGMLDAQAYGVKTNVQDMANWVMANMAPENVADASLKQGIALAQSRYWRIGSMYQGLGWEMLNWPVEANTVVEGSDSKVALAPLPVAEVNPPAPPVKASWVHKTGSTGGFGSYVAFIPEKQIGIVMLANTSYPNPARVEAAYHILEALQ

C[C@H]1[C@H](NC(=O)/C(=N\OC(C)(C)C(=O)O)c2csc(N)n2)C(=O)N1S(=O)(=O)O [Aztreonam, reference compound]
MIC (ec302 TEM-10; read-out: Aztreonam MIC): 128 µg/mL
MIC (KP1010 SHV-12; read-out: Aztreonam MIC): 64 µg/mL
MIC (KP1005 CTX-M-14 [1]): > 128 µg/mL
MIC (KP1004 KPC-2 [2]; read-out: Aztreonam MIC): > 128 µg/mL
MIC (KP1009 CTX-M-15; read-out: Aztreonam MIC): > 128 µg/mL
MIC (ec308 SHV-5; read-out: Aztreonam MIC): > 128 µg/mL
MIC (EC1010 CMY-6; read-out: Aztreonam MIC): > 128 µg/mL

COc1ccc2c(c1C(=O)[O-])O[B-](O)(O)CC2.[Na+].[Na+] [Compound 7, DISODIUM; 4,4-DIHYDROXY-8-METHOXY-5-OXA-4-BORANUIDABICYCLO[4.4.0]DECA-1(6),7,9-TRIENE-7-CARBOXYLATE]
BPM MPC1 OXA-48 KP1086 (KP1086 OXA-48): X (X = MPC@1 ≤ 5 μg/mL)
AZT MPC4 TEM-10 ec302 (ec302 TEM-10; [11]): X (X = MPC@4 ≤ 5 μg/mL)
MPM MPC8 AB1054 OXA-23 (AB1054 OXA-23): X (key: X = MPC@1 ≤ 5 μg/mL; Y = 5 μg/mL < MPC@1 ≤ 20 μg/mL; Z = MPC@1 > 20 μg/mL)
AZT MPC4 SHV-12 KP1010 (KP1010 SHV-12): X (key: X = MPC@4 ≤ 5 μg/mL; Y = 5 μg/mL < MPC@4 ≤ 20 μg/mL; Z = MPC@4 > 20 μg/mL)
PAM1032/KPC-2 Biapenem MPC64 (PAM1032/KPC-2): 2.5
AZT MPC4 KPC-2 KP1004 (KP1004 KPC-2 [2]): X (key: X = MPC@4 ≤ 5 μg/mL; Y = 5 μg/mL < MPC@4 ≤ 20 μg/mL; Z = MPC@4 > 20 μg/mL)
Ki (biochemical): < 100 nM
Ki [3]: < 100 nM
Ki (P99, NCF), uM [4]: X (key: X = Ki ≤ 0.1 μM; Y = 0.1 μM < Ki ≤ 1 μM; Z = Ki > 1 μM)
Ki (OXA-48, NCF), uM [5]: X (key: X = Ki ≤ 0.1 μM; Y = 0.1 μM < Ki ≤ 1 μM; Z = Ki > 1 μM)
Ki (KPC-2, NCF), uM [6]: X (key: X = Ki ≤ 0.1 μM; Y = 0.1 μM < Ki ≤ 1 μM; Z = Ki > 1 μM)
Ki [7]: < 100 nM
Ki (CTX-M-14, NCF), uM [8]: X (key: X = Ki ≤ 0.1 μM; Y = 0.1 μM < Ki ≤ 1 μM; Z = Ki > 1 μM)
AZT MPC4 CTX-M-15 KP1009 (KP1009 CTX-M-15; [11]): X (X = MPC@4 ≤ 5 μg/mL)
MPM MPC8 AB1053 OXA-72 (AB1053 OXA-72): X (X = MPC@1 ≤ 5 μg/mL)
BPM MPC1 KP1004 KPC-2 (KP1004 KPC-2 [9]): X (X = MPC@1 ≤ 5 μg/mL)
AZT MPC4 SHV-5 ec308 (ec308 SHV-5; [11]): X (X = MPC@4 ≤ 5 μg/mL)
TIG MPC4 CTX-M-14 KP1005 (KP1005 CTX-M-14 [10]): X (key: X = MPC@4 ≤ 5 μg/mL; Y = 5 μg/mL < MPC@4 ≤ 20 μg/mL; Z = MPC@4 > 20 μg/mL)
PAM1154/KPC-2 Biapenem MPC64 (PAM1154/KPC-2): 0.6
AZT MPC4 ECL1002 (ECL1002): X (X = MPC@4 ≤ 5 μg/mL)
AZT MPC4 CMY-6 EC1010 (EC1010 CMY-6): X (key: X = MPC@4 ≤ 5 μg/mL; Y = 5 μg/mL < MPC@4 ≤ 20 μg/mL; Z = MPC@4 > 20 μg/mL)
